# Test results reported in US7238340B1, “Monoamine, diamide, thiol-containing metal chelating agents” (CIS bio international, priority 1991, dated 2007).
# Experiments:
# [1] = In vivo imaging of deep vein thrombosis with Tc-99m labeled thrombus targeting peptide, canine model; conditions: mongrel, dog, thrombus, iv, total radioactivity
# Description: (§1) Mongrel dogs (25–35 lb., fasted overnight) were sedated with a combination of ketamine and aceprozamine intramuscularly and then anesthetized with sodium pentabarbital intravenously. In each animal, an 18-gauge angiocath was inserted in the distal half of the right femoral vein and a 5 mm or 8 mm Dacron®-entwined stainless steel embolization coil (Cook Co., Bloomington Ind.) was placed in the femoral vein at approximately mid-femur. The catheter was removed, the wound sutured and the placement of the coil documented by X-ray. The animals were then allowed to recover overnight.
# (§2) One day following coil placement, each animal was re-anesthetized, intravenous saline drips placed in each foreleg and a urinary bladder catheter inserted to collect urine. The animal was placed supine under a gamma camera equipped with a low-energy, all purpose collimator and photopeaked for Tc-99m. […] The second line was maintained for blood collection.
# (§3) Gamma camera imaging was started simultaneously with injection. Anterior images over the heart were acquired as a dynamic study (10 sec image acquisitions) over the first 10 min, and then as static images at 1, 2, 3 and 4h post-injection. Anterior images over the legs were acquired for 500,000 counts or 20 min (whichever is shorter), at approximately 10–20 min, and at approximately 1, 2, 3 and 4h post-injection. Leg images were collected with a lead shield placed over the bladder.
# (§4) Following collection of the final image, each animal was deeply anesthetized with pentobarbital. Two blood samples were collected using a heparinized syringe followed by a euthanizing dose of saturated potassium chloride solution administered by intercardiac or bolus intravenous injection. […] The thrombus, coil and coil Dacron fibres were then dissected free of the vessel. The thrombus, saline-washed vessel samples, coil and coil Dacron® fibres were separated, and each sample was placed in a pre-weighed test tube. The samples were weighed and counted in a gamma well counter in the Tc-99m channel, along with known fractions of the injected doses.
# (§5) Fresh thrombus weight, percent injected dose (% ID)/g in the thrombus and blood obtained just prior to euthanasia and thrombus/blood and thrombus/muscle ratios were determined. From the computer-stored images, thrombus/background ratios were determined by analysis of the counts/pixel measured in regions-of-interest (ROI) drawn over the thrombus and adjacent muscle.
# [2] = tested on: thrombus; test: as above; conditions: Tc-99m labeled peptide, i.v., dog, ratio
# Description: as §1, §2, §3, §4, §5
smiles,measurement,setting,value
"CC(=O)NCSC[C@H](NC(=O)CNC(=O)CNC(=O)[C@@H]1CSCC(=O)N[C@H](Cc2ccc(O)cc2)C(=O)N[C@@H](Cc2ccc(C(=N)N)cc2)C(=O)NCC(=O)N[C@@H](CC(=O)O)C(=O)N1)C(=O)NCC(=O)N[C@@H](CSCNC(C)=O)C(=O)NCC(=O)NCC(=O)N[C@@H](CSCC(=O)NCCCC[C@H](NC(=O)CSC[C@H](NC(=O)CNC(=O)CNC(=O)[C@H](CSCNC(C)=O)NC(=O)CNC(=O)[C@H](CSCNC(C)=O)NC(=O)CNC(=O)CNC(=O)[C@@H]1CSCC(=O)N[C@H](Cc2ccc(O)cc2)C(=O)N[C@@H](Cc2ccc(C(=N)N)cc2)C(=O)NCC(=O)N[C@@H](CC(=O)O)C(=O)N1)C(N)=O)C(=O)NCCCC[C@H](N)C(=O)NCC(=O)N[C@@H](CS)C(N)=O)C(N)=O [Peptide P747, (CH2CO.YD.Amp.GDCGGCAcmGCAcmGGC.amide)2(CH2CO)2K(ε-K)GC.amide]",tissue uptake at 4 h,[1],0.043 %ID/g
same,Thrombus/Blood,[2],15
same,Thrombus/Muscle,[2],70
